Data reported in PubChem BioAssay (NCI).
“And” between values parts separate entries of the source, which are not always exact repeats. Equal entries are not always repeated.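 In this assay, cells in 96-well plates receive the compound at five concentrations for 48 hours. Endpoints are linearly interpolated between the surrounding concentrations. At the GI50, growth is halved. TGI denotes the concentration required for complete inhibition of growth.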

Experiments:
Test in all cases: growth of human tumour cells (NCI), 48 h
[1] = system: COLO 205 colon
[2] = system: LOX IMVI melanoma
[3] = system: SNB-19 CNS
[4] = system: HCT-116 colon
[5] = system: SK-MEL-2 melanoma
[6] = system: KM12 colon
[7] = system: HL-60(TB) leukemia
[8] = system: SK-MEL-5 melanoma
[9] = system: TK-10 renal
[10] = system: DU-145 prostate

Compound	GI50 [1] [µM]	TGI [1] [µM]	GI50 [2] [µM]	TGI [2] [µM]	GI50 [3] [µM]	TGI [3] [µM]	GI50 [4] [µM]	TGI [4] [µM]	GI50 [5] [µM]	TGI [5] [µM]	GI50 [6] [µM]	TGI [6] [µM]	GI50 [7] [µM]	TGI [7]	GI50 [8] [µM]	TGI [8] [µM]	GI50 [9] [µM]	TGI [9] [µM]	GI50 [10] [µM]	TGI [10] [µM]
COc1cc(-c2nn(C(=O)NS(=O)(=O)c3ccc(C)cc3)cc2-c2ccncc2)ccc1Cl	3.89	15.4	3.54	18.1	4.9	38.5	5.63	32.2	4.65	15.4	11	43.5	4.63	24.9 µM	4.58	17.1	4.9	19.8	6.88	75.7
CCOC(=O)c1c(C)n(CC(C)C)c2c1cc1oc(=O)c(=O)n3cnc2c13	20.7	> 50	8.45	16	36.2	> 50	14.8	> 50	38.7	> 50	13.6	38.3	11.5	36.4 µM	10.1	19.8	13.3	47.6	16.3	> 50
O=C(c1ccco1)c1c(C(F)(F)F)nc2cc(C(F)(F)F)ccc2[n+]1[O-]	> 100	> 100	48.1	> 100	40.7	> 100	33.4	> 100	69.3	> 100	> 100	> 100	> 100	> 100 µM	> 100	> 100	28.6	> 100	45.1	> 100
O=C(NCCCNC(=O)OCc1ccc2c(Br)cc(Br)c(O)c2n1)OCc1ccc2c(Br)cc(Br)c(O)c2n1	> 100	> 100	> 100	> 100	> 100	> 100	> 100	> 100	> 100	> 100	> 100	> 100	> 100	> 100 µM	> 100	> 100	> 100	> 100	> 100	> 100
CCN(CC)CCCCCOc1cc(O)c2c(=O)cc(-c3ccccc3)oc2c1	2.13	5.02	1.57	2.96	6.76	21.3	1.74	3.52	3.23	11.4	2.89	9.37	2.67	7.1 µM	1.91	3.83	7.1	27.1	4.61	17.4
COc1ccccc1CNC(=O)C1c2ccccc2C(=O)N(CC(C)C)C1c1cccs1 (stereo not given)	18.2	39.1	27.8	89.1	28.8	> 100	15.3	77.6	16.6	36.9	24.8	> 100	20.5	60.9 µM	14.7	28.9	26.3	66.9	38.4	> 100
c1ccc2cc(OCC3CO3)c(OCC3CO3)cc2c1 (stereo not given)	–	25.3	–	12	–	17.7	–	3.11	–	29	–	26.7	–	45.3 µM	–	21.2	–	49.2	–	16.7
O=C(Nc1cccc(C(F)(F)F)c1)c1cccc(NC2=C(Cl)C(=O)N(Cc3ccccc3)C2=O)c1	32.3	> 100	3.92	57.5	36.8	> 100	13.5	39.2	14.6	40.1	44.8	> 100	5.36	28.7 µM	18	38.2	19.5	> 100	37.2	> 100
O=C1/C(=C/c2ccc([N+](=O)[O-])s2)Oc2ccccc21	1.26	2.66	0.434	1.64	1.26	2.79	0.267	0.791	0.945	3.04	0.352	1.28	0.96	–	1.18	2.62	1.68	3.59	2.43	5.56
CCOC(=O)N1C/C(=C/c2ccc(OC)cc2)C(=O)/C(=C/c2ccc(OC)cc2)C1	2.18	5.28	0.979	2.84	3.87	> 35	0.21	0.579	13.5	> 56.3	0.946	2.5	3.02	> 25.4 µM	1.6	3.17	2.91	8.58	4.18	> 100
CC[C@@H](C)[C@H]([C@H](CC(=O)N1CCC[C@@H]1[C@@H](OC)[C@H](C)C(=O)N[C@H](Cc1ccccc1)c1nccs1)OC)N(C)C(=O)[C@H](NC(=O)[C@@H](C(C)C)N(C)C)C(C)C	–	0.000302	0.000425	–	–	0.00744	–	0.00467	< 0.0229	–	0.000425	–	0.000425	–	–	0.000656	0.31	98.3	1.48e-05	0.000106
Oc1ccc(Br)cc1/C=N/NC(=S)NC12CC3CC(CC(C3)C1)C2	3.44	11.1	1.22	2.88	2.87	12.4	1.57	4.57	2.09	4.59	1.8	4.35	2.52	6.5 µM	1.72	3.74	–	–	2.25	6.73
COc1ccc2[nH]c(-c3cccc(N(C)C)c3)cc(=O)c2c1	0.379	–	0.599	–	–	–	0.56	–	0.786	–	0.393	–	0.231	0.592 µM and 0.569 µM	0.305	–	19.8	> 100	0.589	–
